{"source": "patent US20110166297A1", "about": "“MOLECULARLY IMPRINTED SMART POLYMERS (MISPs)” (Sailo Nanotechnologies Ltd., priority 2008, published 2011)", "assay": "Solubility of Erg-TAD-Py (dissolved concentration by HPLC)", "type": "physicochemical", "data": [{"smiles": "CC(C)[C@@H](C)/C=C/[C@@H](C)C1CCC2C34C=CC5(C[C@@H](O)CC[C@]5(C)C3CC[C@]12C)n1c(=O)n(CCCc2ccc3ccc5cccc6ccc2c3c56)c(=O)n14", "note": "(some centres unmarked) [Erg-TAD-Py, Ergosterol-triazolinedione-pyrene]", "values": [{"measurement": "Concentration of dissolved Erg-TAD-Py", "setting": "10% DMSO in serum (inactivated fetal calf serum)", "result": 7800, "unit": "ng/mL"}, {"measurement": "Concentration of dissolved Erg-TAD-Py", "setting": "10% DMSO in water", "result": 700, "unit": "ng/mL"}, {"measurement": "Concentration of dissolved Erg-TAD-Py", "setting": "30% DMSO in serum (inactivated fetal calf serum)", "result": 8400, "unit": "ng/mL"}, {"measurement": "Concentration of dissolved Erg-TAD-Py", "setting": "30% DMSO in water", "result": 6700, "unit": "ng/mL"}, {"measurement": "Concentration of dissolved Erg-TAD-Py", "setting": "50% DMSO in serum (inactivated fetal calf serum)", "result": 6800, "unit": "ng/mL"}, {"measurement": "Concentration of dissolved Erg-TAD-Py", "setting": "50% DMSO in water", "result": 6000, "unit": "ng/mL"}, {"measurement": "Concentration at which ethanol dissolves Erg-TAD-Py", "result": 50000, "unit": "ng/mL"}, {"measurement": "Concentration at which ethanol dissolves Erg-TAD-Py", "setting": "molar equivalent of 0.05 mg/ml", "result": "about 60 uM"}]}]}
